The term half-life denotes the time in which the quantity being followed falls by half. Read a high half-life as slow loss.

For the data set the following is noted: rat; liver microsomes; pH 7.4; 15.0 min; 1.0 µM. Background: Liver microsomes are a subcellular fraction often used to study metabolism.
In turn, `O=S(=O)(Nc1nc2ccccc2s1)c1ccc(NCc2cccc(Cl)c2O)cc1` returned a half-life above 30 min. The result for `O=C(Cc1ccc2ccccc2c1)Nc1ccc(S(=O)(=O)Nc2nccs2)cc1` reads above 30 min; that for `Cc1cnc(-c2ccccc2OC(C)C)nc1NCc1ccc(-n2ccnn2)cc1`, 6.45 min. The result for `CCOc1ccc(CCNC(=O)c2cc3sccc3n2Cc2ccc(F)cc2F)cc1OCC` reads 1.8 min.

In turn, `c1ccc2c(Nc3nccs3)nc(-c3ccncc3)nc2c1` registered a half-life of 6.4 min.

`COCCCOc1ccnc(CS(=O)c2nc3ccccc3[nH]2)c1C` (stereo not given): the half-life is 8.83 min. The result for `COc1ccc(CCNc2ncnc3onc(C)c23)c(OC)c1` reads 2.23 min.

For the molecule `CC(C)(C)C1CCc2c(sc(NC(=O)c3ccncc3)c2C(N)=O)C1` (stereo not given), the half-life is above 30 min.

`NC(=O)c1ccc(-c2ncc3cnc(-c4cccc(F)c4)cn23)cc1` gave a half-life of 20.7 min. Take `CCOc1ccccc1N1CC(c2nc3ccccc3n2CCOc2ccc(C(C)(C)C)cc2)CC1=O` (stereo not given): the half-life was 2.34 min.

Consider `CCOC(=O)C1CCN(c2nc(-c3ccc(Br)cc3)cs2)CC1`, for which the half-life came out at 2.19 min. Take `COc1cc2c3cc1Oc1c(O)c(OC)cc4c1[C@@H](Cc1ccc(cc1)Oc1cc(ccc1O)C[C@H]3N(C)CC2)N(C)CC4`: the half-life turned out to be 29.8 min. Turning to `COc1ccc2c(c1)N(C[C@H](C)CN(C)C)c1ccccc1S2`, the half-life amounted to 2.07 min. Against the preceding molecule, the half-life is about 14-fold lower. The result for `c1cc(-c2cc(-c3ccncc3)c3cncn3c2)c2cc[nH]c2c1` reads 5.63 min.

On to `Cc1cc(NS(=O)(=O)c2ccc(NCCc3ccc(Cl)c(Cl)c3)cc2)no1`, for which the half-life came to 12 min.

With `O=C1CCCC2=C1C(c1[nH]ncc1Cl)N=C(Nc1nc3cc(F)ccc3o1)N2` (stereo not given), the half-life worked out at 17 min. In turn, `Cc1ccc(NC(=O)c2cc(S(=O)(=O)NCCC3=CCCCC3)ccc2F)cc1F` yielded a half-life of 2.07 min.

For `COC(=O)c1ccnc(-c2cc(C(=O)NCCc3ccccc3)ccn2)c1`, the half-life came to 1.98 min. Take `O=C(Nc1ccc([S+](=O)([O-])Nc2nccs2)cc1)c1ncn[nH]1`: the half-life was above 30 min. On to `CC[C@H](CO)Nc1nc(NCc2ccccc2)c2ncn(C(C)C)c2n1`, for which the half-life worked out at 5.51 min. The result for `Nc1nc(Nc2ccc(S(N)(=O)=O)cc2)n(C(=S)Nc2c(F)cccc2F)n1` reads above 30 min. Regarding `CC1=C(C(=O)Nc2nnc(-c3ccccc3)s2)C(c2[nH]ncc2Cl)N=C(Nc2nc3ccccc3o2)N1` (stereo not given), the half-life was 11 min. The result for `COc1ccc(-n2cnc3cc(C(=O)N4CCCCC4)ccc32)cc1` reads 20.7 min; that for `CN1CCN(C(=O)Cc2c[nH]c3ncc(-c4ccccc4Oc4ccccc4)cc23)CC1`, 1.72 min. `CN(C)c1ccc(S(=O)(=O)N2CCCCC2)cc1NS(=O)(=O)c1ccc2ccccc2c1` showed a half-life of 1.34 min. The half-life values of the last two molecules are within 1.5-fold of each other. The result for `Cc1cccc2c1NC(=O)/C2=C/c1cc(Cl)c(O)c(Cl)c1` reads 26 min; that for `CCOc1ccc(C2c3c(oc4ccc(C)cc4c3=O)C(=O)N2CCCN(C)C)cc1` (stereo not given), 13.6 min; that for `Cc1ccc(-c2ccnc(N3CCC(C(N)=O)CC3)n2)cc1`, 2.35 min. Turning to `CCn1nc(C2CCN(C(=O)CCO)CC2)nc1-c1cnc(N)c(-c2nnc(C(C)(C)C)o2)n1`, the half-life was above 30 min. Regarding `CN(C)c1cccc(-c2nc(N3CCC(C(N)=O)CC3)ncc2F)c1`, the half-life stood at 1.45 min. `Cc1ccc(-c2cc(C(=O)Nc3ccc(S(=O)(=O)NCc4nccs4)cc3)c3ccccc3n2)cc1C` showed a half-life of 5.8 min. Compared with the last molecule, the half-life is about 4-fold higher. The result for `Cc1ccc(S(=O)(=O)Nc2cnccc2C(=O)Nc2nc(-c3ccc(Oc4ccccc4)cc3)cs2)cc1` reads 6.9 min; that for `Cc1cccc(-n2cnc3cc(C(=O)N4CCCCC4)ccc32)c1`, 5.85 min. On to `CC(C)c1ccc(-n2ncc3c(=O)n(CC(=O)Nc4cc(F)ccc4Cl)cnc32)cc1`, for which the half-life came out at 20 min. Regarding `O=C(Nc1ccc(Nc2ccncc2)cc1)c1ccc(Nc2ccnc3ccc([N+](=O)[O-])cc23)cc1[N+](=O)[O-]`, the half-life was above 30 min. Consider `Clc1ccccc1-c1nc(NCc2ccc(-c3cccnc3)cc2)c2ccccc2n1`, for which the half-life turned out to be 6.99 min. The result for `O=C(NCCc1ccccn1)C1CC(=O)N(c2n[nH]c3cc(Br)ccc23)C1` (stereo not given) reads 29.7 min.

For the molecule `CC(=O)Nc1ccc(CN2CCc3nc(C(C)C)nc(-c4ccc(Cl)cc4)c3CC2)cc1`, the half-life amounted to 4.1 min. The result for `CCOC(=O)N1CCc2c(sc(NCc3sccc3C)c2C(=O)Nc2cc(Cl)ccc2OC)C1` reads 9.8 min; that for `Cn1nnnc1SCCCNCc1cccc(OCc2ccccc2Cl)c1`, 1.72 min. The result for `O=C(Nc1ccc(Oc2ccnc3[nH]ccc23)c(F)c1)c1cccn(-c2ccc(F)cc2)c1=O` reads 13.1 min. Regarding `CC/C=C\CC1C(=O)CCC1CC(=O)OC` (stereo not given), the half-life is above 30 min. The result for `O=C(Nc1cccc(C(F)(F)F)c1)Nc1cc(S(=O)(=O)NC2CC2)ccc1-c1ccsc1` reads 5.65 min; that for `CCN1CCN(CCCOc2ccc(-c3ccccc3)cc2)CC1`, 7.9 min. In turn, `Cc1cccc(C(=O)N2CCc3cc(-c4nc(NC(=O)Cc5ccc6c(c5)OCO6)sc4C)ccc32)c1` yielded a half-life of 4.4 min. The result for `O=C(NC1CCN(c2cc(-c3ccc(Cl)cc3)[nH]n2)C1)c1ccccc1` (stereo not given) reads above 30 min; that for `COc1ccc(NC(=O)c2c(C)cccc2C)cc1S(=O)(=O)Nc1ccc(Br)cc1`, 5.2 min; that for `Nc1ccc(-c2cccc3c(=O)cc(N4CCOCC4)oc23)cc1`, above 30 min.

In turn, `COc1cc(C(=O)NC2CCCc3c2[nH]c2c(Cl)cccc32)cc(OC)c1OC` (stereo not given) displayed a half-life of 8.45 min. `C#Cc1ccc(NC(=O)c2cnn3c(C)cc(C)nc23)cc1` yielded a half-life of 25.5 min. Turning to `Cc1ccc(NC(=O)c2cc(-c3ccc[nH]3)n[nH]2)cc1F`, the half-life turned out to be 6.16 min.

Molecule `CN1CCN(c2ccc(Nc3nn4c(=O)c5ccccc5nc4s3)cc2)CC1` gave a half-life of 15.2 min. Compared with the last molecule, the half-life is about 2.5-fold higher. For the molecule `N#Cc1nc(-c2cccc3ccccc23)oc1NC1COC1`, the half-life came out at 28 min. Molecule `C[C@H]1[C@@H](CCC(=O)Nc2ccc(F)cc2)O[C@@H]2O[C@]3(C)CC[C@@H]4[C@H](C)CC[C@@H]1[C@@]24OO3` had a half-life of 2 min. The result for `CCc1ccc(NC(=O)c2[nH]c(C)c(C(C)=O)c2C)cc1S(=O)(=O)Nc1ccc(Br)cc1` reads 23 min; that for `CC(=O)Nc1cccc(-c2nc(-c3c(C)noc3C)cc3c2cc(-c2ccccc2)n3C)c1`, above 30 min; that for `O=C(NCc1cccnc1)c1nc(-c2ccc(Cl)nc2)c2cnccn12`, 26.6 min. Turning to `CCNC(=O)c1ccc(-c2ccc3ncnc(NCC4CCCO4)c3c2)o1` (stereo not given), the half-life was above 30 min. The result for `Cc1cccc(CS(=O)(=O)c2ncc(Cl)c(C(=O)Nc3nc4ccc(F)cc4s3)n2)c1` reads 1.43 min; that for `O=C(c1cnc(N2CCCCC2)c2ccccc12)N1CCN(c2ccccn2)CC1`, 2.1 min.

With `O=C(Nc1ccc(S(=O)(=O)Nc2nccs2)cc1)c1cc(-c2ccccc2)nc2ccccc12`, the half-life was above 30 min. `Cc1cc(Nc2ccc(Br)c(C)c2)n2nc(C)nc2n1`: the half-life was determined as 6.7 min. Turning to `O=C(Nc1ccc2oc(-c3cccnc3)nc2c1)c1ccc(-c2ccccc2)o1`, the half-life was 14.4 min. `Cc1ccc(S(=O)(=O)Nc2cnccc2C(=O)Nc2ccc(-c3nc4ccccc4[nH]3)cc2)cc1`: the half-life worked out at 14 min. The result for `COc1cc(CNCCO)cc(Cl)c1OCc1ccc(Cl)cc1Cl` reads 25.5 min.
